Source: patent publication US20160052926A1, “NOVEL PYRIMIDINE AND PYRIDINE COMPOUNDS AND USAGE THEREOF” (HUTCHISON MEDIPHARMA LIMITED, priority 2013, published 2016)

Tests used:
[1] = test system: KG-1; test: Cellular Proliferation Assay (Cell Counting Kit-8), KG-1; format: cell-based; details: Homo sapiens, KG1 cells, 72 hours
Procedure, shortened: (§1)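 Proliferation was read as OD at 450 nm after 1 h with CCK-8, following 72 h drug exposure at 37 °C, 5% CO2. Inhibition was calculated against cells in 0.5% DMSO minus medium blank, and the 50% point reported. The compound series (10–0.004 μM, pre-addition, in 5% DMSO) was added one day after plating KG-1, SNU-16 and RT-112 at 30,000, 5,000 and 1,000 cells/well respectively.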

[2] = biological target: FGFR3 kinase (Homo sapiens, UniProt P22607); test: Z-Lyte Kinase Assay of FGFR3; format: biochemical
Procedure, shortened: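 FRET peptide-cleavage format: 1 h kinase reaction at RT (25-30[…]), then 1 h protease development, then stop and dual-emission read (Ex400, Em445/520 nm). Working solutions: kinase 0.7 μg/ml, Tyr 4 peptide 4 μM, ATP 300 uM in 1.33× buffer; eight compound concentrations from 1 μM, 2% DMSO final.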

[3] = biological target: Recombinant human FGFR2 (Homo sapiens, UniProt P21802); test: Transcreener Kinase Assay of FGFR2; format: biochemical; details: read-out: FGFR2 (FP) IC50
[4] = test system: RT-112; test: Cellular Proliferation Assay (Cell Counting Kit-8), RT-112; format: cell-based; details: Homo sapiens, RT-112 cells, 72 hours
Procedure, shortened: as §1

[5] = biological target: Recombinant human FGFR1 (Homo sapiens, UniProt P11362); test: Transcreener Kinase Assay of FGFR1; format: biochemical; details: read-out: FGFR1 (FP) IC50
[6] = test system: SNU-16; test: Cellular Proliferation Assay (Cell Counting Kit-8), SNU-16; format: cell-based; details: Homo sapiens, SNU-16 cells, 72 hours
Procedure, shortened: as §1

Sequence of FGFR3 kinase (P22607 23-806): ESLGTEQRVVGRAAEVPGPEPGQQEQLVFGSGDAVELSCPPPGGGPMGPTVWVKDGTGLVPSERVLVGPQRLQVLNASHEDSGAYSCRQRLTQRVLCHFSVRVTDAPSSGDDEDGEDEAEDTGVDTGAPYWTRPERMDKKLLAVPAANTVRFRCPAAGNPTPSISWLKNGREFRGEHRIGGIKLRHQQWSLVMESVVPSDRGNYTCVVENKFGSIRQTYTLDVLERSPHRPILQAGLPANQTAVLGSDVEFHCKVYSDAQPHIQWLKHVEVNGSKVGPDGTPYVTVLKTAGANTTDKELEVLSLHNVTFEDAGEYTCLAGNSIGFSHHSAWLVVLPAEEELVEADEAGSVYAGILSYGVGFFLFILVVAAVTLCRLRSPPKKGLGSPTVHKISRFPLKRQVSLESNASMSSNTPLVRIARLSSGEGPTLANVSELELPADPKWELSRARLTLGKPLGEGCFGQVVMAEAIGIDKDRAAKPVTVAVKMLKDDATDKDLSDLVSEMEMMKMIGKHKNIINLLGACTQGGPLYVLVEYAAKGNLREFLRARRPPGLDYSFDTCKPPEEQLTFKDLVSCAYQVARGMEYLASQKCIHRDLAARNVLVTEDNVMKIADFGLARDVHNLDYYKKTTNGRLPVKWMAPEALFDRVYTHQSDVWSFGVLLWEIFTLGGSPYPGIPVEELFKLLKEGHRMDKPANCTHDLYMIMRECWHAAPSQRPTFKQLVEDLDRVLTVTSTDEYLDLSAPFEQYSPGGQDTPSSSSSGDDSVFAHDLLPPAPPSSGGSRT
Sequence of Recombinant human FGFR1 (P11362 22-822): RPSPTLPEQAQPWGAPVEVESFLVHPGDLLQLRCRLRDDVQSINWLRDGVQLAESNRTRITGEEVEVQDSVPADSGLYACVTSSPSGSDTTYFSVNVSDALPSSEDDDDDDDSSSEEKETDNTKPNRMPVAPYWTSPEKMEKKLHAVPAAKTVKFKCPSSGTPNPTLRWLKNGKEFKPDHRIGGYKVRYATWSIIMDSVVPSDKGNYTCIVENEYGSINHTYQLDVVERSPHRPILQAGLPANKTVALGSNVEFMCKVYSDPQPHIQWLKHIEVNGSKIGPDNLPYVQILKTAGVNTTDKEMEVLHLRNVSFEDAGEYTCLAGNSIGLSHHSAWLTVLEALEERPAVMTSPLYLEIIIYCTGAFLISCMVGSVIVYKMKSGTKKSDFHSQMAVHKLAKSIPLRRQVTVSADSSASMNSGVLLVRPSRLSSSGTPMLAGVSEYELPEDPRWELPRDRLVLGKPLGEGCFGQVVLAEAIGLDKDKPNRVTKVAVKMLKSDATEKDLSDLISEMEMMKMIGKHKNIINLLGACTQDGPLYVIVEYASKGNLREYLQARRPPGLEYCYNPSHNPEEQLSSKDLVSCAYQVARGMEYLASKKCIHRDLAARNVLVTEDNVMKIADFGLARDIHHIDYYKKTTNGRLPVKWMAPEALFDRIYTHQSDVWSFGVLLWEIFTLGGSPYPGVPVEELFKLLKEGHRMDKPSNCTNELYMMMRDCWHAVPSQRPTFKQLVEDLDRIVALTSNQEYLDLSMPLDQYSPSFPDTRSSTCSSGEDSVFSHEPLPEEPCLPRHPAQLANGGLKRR
Sequence of Recombinant human FGFR2 (P21802 22-821): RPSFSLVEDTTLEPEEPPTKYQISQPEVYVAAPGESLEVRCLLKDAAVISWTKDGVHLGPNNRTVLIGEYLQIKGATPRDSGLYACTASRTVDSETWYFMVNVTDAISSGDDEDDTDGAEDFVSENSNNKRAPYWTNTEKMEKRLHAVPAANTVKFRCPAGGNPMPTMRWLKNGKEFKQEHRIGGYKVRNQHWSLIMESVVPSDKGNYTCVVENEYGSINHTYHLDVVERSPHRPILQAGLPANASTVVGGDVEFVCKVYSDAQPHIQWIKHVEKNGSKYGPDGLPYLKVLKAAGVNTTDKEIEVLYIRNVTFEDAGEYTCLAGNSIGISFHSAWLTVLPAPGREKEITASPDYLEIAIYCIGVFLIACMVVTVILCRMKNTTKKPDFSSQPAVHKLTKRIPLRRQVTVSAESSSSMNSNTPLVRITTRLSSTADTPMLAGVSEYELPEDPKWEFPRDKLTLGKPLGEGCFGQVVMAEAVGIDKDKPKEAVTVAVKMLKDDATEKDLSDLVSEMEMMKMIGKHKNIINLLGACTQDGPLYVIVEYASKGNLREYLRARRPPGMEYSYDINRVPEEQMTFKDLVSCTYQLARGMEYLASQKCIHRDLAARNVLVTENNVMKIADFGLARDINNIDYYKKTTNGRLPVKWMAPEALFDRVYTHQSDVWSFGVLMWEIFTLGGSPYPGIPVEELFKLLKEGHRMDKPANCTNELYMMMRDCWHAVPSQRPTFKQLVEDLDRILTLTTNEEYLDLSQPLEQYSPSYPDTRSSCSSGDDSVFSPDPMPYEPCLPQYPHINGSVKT

SMILES | IC50 [2] | IC50 [3] | IC50 [5] | IC50 [6] | IC50 [1] | IC50 [4]
CCn1cc(Nc2ncc(CCc3cc(C(=O)NC)cc(OC)c3Cl)cn2)cn1 [Compound 115] | 11 nM | 6 nM | 14 nM | 19 nM | 12 nM | 53 nM
CNC(=O)c1cc(CCc2cnc(Nc3cnn([C@H]4CCCN(C)C4)c3)nc2)c(F)c(OC)c1 [Compound 172] | 6 nM | 6 nM | 9 nM | 14 nM | 22 nM | 64 nM
CCN1CCC(n2cc(Nc3ncc(CCc4cc(C(=O)NC)cc(OC)c4F)cn3)cn2)CC1 [Compound 176] | 8 nM | 7 nM | 7 nM | 17 nM | 66 nM | 100 nM
CNC(=O)c1cc(CCc2cnc(Nc3cnn([C@@H]4CCOC4)c3)nc2)c(F)c(OC)c1 [Compound 123] | 13 nM | 5 nM | 9 nM | 18 nM | 26 nM | 135 nM
CCn1cc(Nc2ncc(CCc3cc(C(=O)NC)cc(OC)c3C#N)cn2)cn1 [Compound 179, 4-cyano-3-(2-(2-((1-ethyl-1H-pyrazol-4-yl)amino)pyrimidin-5-yl)ethyl)-5-methoxy-N-methylbenzamide] | 91 nM | 56 nM | 69 nM | 202 nM | 284 nM | 952 nM
CNC(=O)c1cc(CCc2cnc(Nc3cnn(C4CCC4)c3)nc2)c(Cl)c(OC)c1 [Compound 81] | 11 nM | 5 nM | 8 nM | 25 nM | 16 nM | 10 nM
CNC(=O)c1cc(CCc2cnc(Nc3cnn(CCN4CCN(C)CC4)c3)nc2)c(Cl)c(OC)c1 [Compound 89] | 8 nM | 8 nM | 12 nM | 29 nM | 130 nM | 46 nM
CCNC(=O)c1cc(CCc2cnc(Nc3cnn(C)c3)nc2)c(Cl)c(OC)c1 [Compound 147] | 22 nM | 10 nM | 19 nM | 46 nM | 48 nM | 334 nM

Second part, led by results:

IC50 [2] | IC50 [3] | IC50 [5] | IC50 [6] | SMILES | IC50 [1] | IC50 [4]
12 nM | 6 nM | 12 nM | 16 nM | CNC(=O)c1cc(COc2cnc(Nc3ccc(N4C[C@@H](C)N[C@@H](C)C4)c(F)c3)nc2)c(F)c(OC)c1 [Compound 195] | 25 nM | 25 nM
42 nM | 20 nM | 42 nM | 85 nM | CNC(=O)c1cc(CCc2cnc(Nc3ccc4nnc(C)n4c3)nc2)c(F)c(OC)c1 [Compound 69] | 268 nM | 337 nM
26 nM | 15 nM | 32 nM | 24 nM | CNC(=O)c1cc(CCc2cnc(Nc3ccc(CN4CCOCC4)nc3)nc2)c(F)c(OC)c1 [Compound 98] | 48 nM | 225 nM
8 nM | 6 nM | 12 nM | 2 nM | CNC(=O)c1cc(COc2cnc(Nc3ccc(N4C[C@@H](C)N[C@@H](C)C4)cc3)nc2)c(F)c(OC)c1 [Compound 192] | 8 nM | 14 nM
334 nM | 68 nM | 181 nM | 534 nM | CNC(=O)c1cc(COc2ccc(Nc3ccc(N4C[C@@H](C)N[C@@H](C)C4)cc3)nc2)c(F)c(OC)c1 [Compound 191] | 647 nM | 540 nM
